Laboratory results published in ChEMBL document CHEMBL1201862, “PubChem BioAssay data set” (2004).
“And” between values parts separate entries of the source, which are not always exact repeats. Identical values can stand only once.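 Values below derive from 48-hour exposures of cells grown in 96-well plates, with endpoints linearly interpolated between the two concentrations bracketing the appropriate inhibition level. Abbreviation: GI50, concentration required for 50% inhibition of growth.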 The source made the active and inactive calls. Rule as the data show it: active = GI50 up to about 1.1 µM and inactive = higher.

How the values were obtained:
Assay in all cases: NCI-60 cell line screen, 48 h
BT-549 = tested on: BT-549
CAKI-1 = tested on: CAKI-1
HCC 2998 = tested on: HCC 2998
HL-60 = tested on: HL-60
HT-29 = tested on: HT-29
IGROV-1 = tested on: IGROV-1
K562 = tested on: K562
MDA-MB-231 = tested on: MDA-MB-231
MDA-MB-435 = tested on: MDA-MB-435
NCI-H460 = tested on: NCI-H460
OVCAR-3 = tested on: OVCAR-3
PC-3 = tested on: PC-3
RXF 393 = tested on: RXF 393
SK-OV-3 = tested on: SK-OV-3
SN12C = tested on: SN12C
SNB-19 = tested on: SNB-19
SR = tested on: SR
UACC-62 = tested on: UACC-62
UO-31 = tested on: UO-31
HOP-92 = tested on: HOP-92

| Compound | GI50 (BT-549) | GI50 (CAKI-1) | GI50 (HCC 2998) | GI50 (HL-60) | GI50 (HT-29) | GI50 (IGROV-1) | GI50 (K562) | GI50 (MDA-MB-231) | GI50 (MDA-MB-435) | GI50 (NCI-H460) | GI50 (OVCAR-3) | GI50 (PC-3) | GI50 (RXF 393) | GI50 (SK-OV-3) | GI50 (SN12C) | GI50 (SNB-19) | GI50 (SR) | GI50 (UACC-62) | GI50 (UO-31) | GI50 (HOP-92) |
| --- | --- | --- | --- | --- | --- | --- | --- | --- | --- | --- | --- | --- | --- | --- | --- | --- | --- | --- | --- | --- |
| O=c1c(-c2ccc(O)cc2)coc2cc(OC3OC(CO)C(O)C(O)C3O)cc(O)c12 (centres undefined) | 58.5 µM (inactive) | 60.4 µM (inactive) | > 100 µM (inactive) | > 10 µM (inactive) | > 100 µM (inactive) | > 10 µM (inactive) | > 10 µM (inactive) | > 100 µM (inactive) | > 10 µM (inactive) | 46.9 µM (inactive) | > 100 µM (inactive) | 63.8 µM (inactive) | 40 µM (inactive) | > 10 µM (inactive) | > 100 µM (inactive) | > 100 µM (inactive) | 30.3 µM (inactive) | 81.3 µM (inactive) | 22.2 µM (inactive) |  |
| CCCCCCCCCCCCC(=O)NCC(=O)NC(Cc1ccccc1)C(=O)Oc1ccc([N+](=O)[O-])cc1 (centres undefined) | 44.9 µM (inactive) | > 100 µM (inactive) | 44.4 µM (inactive) | 64.4 µM (inactive) | 82.2 µM (inactive) | 87.9 µM (inactive) |  | 48.4 µM (inactive) | 65.8 µM (inactive) | > 100 µM (inactive) | > 100 µM (inactive) | > 100 µM (inactive) | 91.4 µM (inactive) |  | 70.1 µM (inactive) | 15.2 µM (inactive) | 33.7 µM (inactive) | 60.3 µM (inactive) | 92.9 µM (inactive) |  |
| CC(=O)OCC(OC(C)=O)C(OC(C)=O)C(/C=N\Nc1nc2ccccc2c(=O)[nH]1)OC(C)=O (centres undefined) | > 100 µM (inactive) | > 100 µM (inactive) |  | 67.9 µM (inactive) and 85.9 µM (inactive) | 26.2 µM (inactive) and 41.6 µM (inactive) | 26.1 µM (inactive) and 43.5 µM (inactive) | > 100 µM (inactive) | > 100 µM (inactive) | > 100 µM (inactive) | > 100 µM (inactive) | > 100 µM (inactive) | > 100 µM (inactive) |  | > 100 µM (inactive) | > 100 µM (inactive) | > 100 µM (inactive) | > 100 µM (inactive) | > 100 µM (inactive) | > 100 µM (inactive) | > 100 µM (inactive) |
| CNCC(SC)c1ccc(O)c(O)c1 (centres undefined) | 16.6 µM (inactive) | 20.5 µM (inactive) | 16.7 µM (inactive) | 12.9 µM (inactive) | 30.7 µM (inactive) | 34.3 µM (inactive) | 23.7 µM (inactive) | 28.2 µM (inactive) | 32.1 µM (inactive) | 16.7 µM (inactive) | 14.1 µM (inactive) | 69.2 µM (inactive) | 33.6 µM (inactive) | > 100 µM (inactive) | 21.5 µM (inactive) | > 100 µM (inactive) |  | 41.6 µM (inactive) | 43 µM (inactive) | 20.4 µM (inactive) |
| O=C(CN1CCOCC1)NC1=Nc2ncccc2C(=O)NN1 | > 10 µM (inactive) |  |  | > 10 µM (inactive) | > 10 µM (inactive) | > 10 µM (inactive) | > 10 µM (inactive) | > 10 µM (inactive) | > 10 µM (inactive) | > 10 µM (inactive) | > 10 µM (inactive) | > 10 µM (inactive) | > 10 µM (inactive) | > 10 µM (inactive) | > 10 µM (inactive) | > 10 µM (inactive) | > 10 µM (inactive) | > 10 µM (inactive) | > 10 µM (inactive) | > 10 µM (inactive) |
| CCCSc1ccc2[nH]c(N3C(=O)/C(=C/c4ccc(SC)cc4)N=C3c3ccccc3)cc2c1 | > 38.7 µM (inactive) | 38.8 µM (inactive) | 14.1 µM (inactive) | 9.14 µM (inactive) | 22.7 µM (inactive) | 29.2 µM (inactive) | 0.355 µM (active) | > 50 µM (inactive) | 5.05 µM (inactive) | 18.3 µM (inactive) | 24.6 µM (inactive) | 25.9 µM (inactive) | 19.9 µM (inactive) | 41.5 µM (inactive) | > 40.5 µM (inactive) | 29.1 µM (inactive) |  | 24.7 µM (inactive) | > 35.8 µM (inactive) | > 50 µM (inactive) |
| O=C1Nc2ccccc2C(=O)/C1=C/NC(=S)NC1CCCCC1 | > 100 µM (inactive) | > 100 µM (inactive) | > 100 µM (inactive) | > 100 µM (inactive) | > 100 µM (inactive) | > 100 µM (inactive) | > 100 µM (inactive) | > 100 µM (inactive) | > 100 µM (inactive) | > 100 µM (inactive) | > 100 µM (inactive) | > 100 µM (inactive) | > 100 µM (inactive) | > 100 µM (inactive) | > 100 µM (inactive) | > 100 µM (inactive) |  | > 100 µM (inactive) | > 100 µM (inactive) | > 100 µM (inactive) |
